# From US8394971B2, “Indole derivatives as selective androgen receptor modulators (SARMS)” (Janssen Pharmaceutica N.V., priority 2004, dated 2013)
# Where “and” joins values, the source holds several entries; their conditions need not be identical. Equal entries are not always repeated.
# How the values were obtained:
# [1] = molecular target: T1, androgen receptor (adenovirus AdEasy+rAR in L929 cells) (Rattus norvegicus, UniProt P15207); assay: L929 Androgen Receptor Functional Assay, Adenovirus Transduction; format: cell-based; settings: for % Activity: L929 agonist testing
# T1 construct: expressed in transfected cells
# T1 sequence (P15207 1-902): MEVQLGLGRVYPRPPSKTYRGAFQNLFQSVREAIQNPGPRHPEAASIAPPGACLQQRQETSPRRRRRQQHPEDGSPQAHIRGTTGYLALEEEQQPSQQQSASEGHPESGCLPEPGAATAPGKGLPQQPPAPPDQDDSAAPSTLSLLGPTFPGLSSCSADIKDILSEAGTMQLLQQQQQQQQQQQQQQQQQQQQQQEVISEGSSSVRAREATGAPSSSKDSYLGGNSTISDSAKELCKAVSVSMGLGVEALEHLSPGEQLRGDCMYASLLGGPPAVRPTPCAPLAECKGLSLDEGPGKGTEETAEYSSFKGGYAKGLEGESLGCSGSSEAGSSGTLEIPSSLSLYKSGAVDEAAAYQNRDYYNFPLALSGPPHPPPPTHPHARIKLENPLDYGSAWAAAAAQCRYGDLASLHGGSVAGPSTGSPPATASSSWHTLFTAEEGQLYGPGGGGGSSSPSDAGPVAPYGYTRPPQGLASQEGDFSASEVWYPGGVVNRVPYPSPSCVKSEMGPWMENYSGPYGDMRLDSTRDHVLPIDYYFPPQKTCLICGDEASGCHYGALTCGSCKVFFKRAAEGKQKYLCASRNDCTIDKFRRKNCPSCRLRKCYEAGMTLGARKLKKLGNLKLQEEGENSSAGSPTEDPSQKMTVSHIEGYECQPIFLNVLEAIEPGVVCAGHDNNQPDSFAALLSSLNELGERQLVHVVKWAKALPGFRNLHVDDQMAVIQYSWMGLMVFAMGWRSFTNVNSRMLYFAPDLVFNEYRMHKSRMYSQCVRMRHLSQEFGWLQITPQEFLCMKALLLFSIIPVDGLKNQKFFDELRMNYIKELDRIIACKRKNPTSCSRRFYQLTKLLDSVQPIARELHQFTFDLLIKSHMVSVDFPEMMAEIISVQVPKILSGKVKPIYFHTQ
# Experimental: L929 cells were plated in 96-well plates at 20,000 cells per well, in DMEM/F12 (GIBCO) containing 10% (v/v) charcoal-treated fetal bovine serum (Hyclone) and lacking phenol red. The plates were then incubated overnight at 37° C. in 5% (v/v) humidified CO2.
# Test compound dilutions were prepared in 100% (v/v) DMSO, if necessary. Each dilution was made to 1250× the final desired assay concentration.
# First, 2 mL of DMEM/F12 lacking phenol red was pipetted into the wells of a 2-mL 96-well assay block. Next, 4 μL of the 1250× test compound dilutions were pipetted into each well of the assay block. The mixtures within the well were then carefully mixed by pipette.
# In a 15 mL or 50 mL sterile centrifuge tube, a 2.5 nM (2.5×) dilution of R1881 (methyl-trienolone) in DMEM/F12 lacking phenol red was prepared.
# In a second 15 mL or 50 mL centrifuge tube a solution containing an equal volume of DMEM to the first and an equal volume of 100% (v/v) DMSO to the volume of R1881 used in the first tube was prepared.
# In a 15 mL or 50 mL sterile centrifuge tube, a dilution in DMEM/F12 of the adenovirus AdEasy+rAR at an moi of 1:500 per well was prepared.
# The medium was removed from the 96-well plates by inversion and dried, inverted, very briefly. As soon as possible after medium removal, 40 μL of the diluted unlabeled test compound was added to each well, in duplicate. To each well designated for antagonist testing was added 40 μL of the 2.5 nM R1881 dilution to the wells for antagonist testing. To each well designated for agonist testing was added 40 μL of the DMSO dilution. Then 20 μL of the diluted adenovirus were added to all wells. The plates were incubated for 48 hours at 37° C. in 5% (v/v) humidified CO2.
# To each well was added 100 μL of Steady-Glo luciferase assay substrate (Promega) and the plates were placed on a rotary shaker for 1 min. The plates were then incubated at room temperature in the dark for one hour. The contents of each well were then transferred to a white microtiter plate (Packard) and read on a Luminoskan Ascent (Thermo Lab Systems).
# L929 AR percent activity was determined by testing dilutions of the test compound using a concentration of 3000 nM unless otherwise noted. L929 percent inhibition was determined by testing dilutions of the test compound using a concentration of 3000 nM. […] Luciferase activity per well were measured and EC50s and IC50s determined by linear regression.
# [2] = tested on: testosterone-enhanced ventral prostate and seminal vesicle weights in castrated male Sprague Dawley rats; assay: Ventral Prostate and Seminal Vesicle Weight In Vivo Assay; parameters: species or system rat; settings: immature castrated rats; once daily for five days, usually orally at 40 mg/kg, with testosterone propionate 2 mg/kg s.c.
# Method in brief: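 Immature (~50 g) castrated Sprague Dawley rats dosed once daily for five days with compound (usually oral, 40 mg/kg, cyclodextrin or methylcellulose vehicle) plus testosterone propionate 2 mg/kg s.c. Wet ventral prostate and seminal vesicle weights taken on day six; activity judged by prostate weight or body-weight-adjusted % inhibition.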
# [3] = molecular target: T2, androgen receptor (adenovirus AdEasy+rAR in COS-7 cells) (Rattus norvegicus, UniProt P15207); assay: COS-7 Whole-Cell Androgen Receptor Binding Assay, Adenovirus Transduction; settings: COS binding; 3000 nM unless otherwise noted
# T2 construct: expressed in transfected cells
# T2 sequence (P15207 1-902): T1 sequence (P15207 1-902)
# Experimental: COS-7 cells were plated in 96-well plates at 20,000 cells per well, in a solution of DMEM/F12 (GIBCO) containing 10% (v/v) charcoal-treated fetal bovine serum (Hyclone) and lacking phenol red. The cells were then incubated overnight at 37° C. in 5% (v/v) humidified CO2.
# Test compound solutions were prepared by diluting the test compound in 100% (v/v) DMSO, if necessary.
# Next, 1 mL of DMEM/F12 lacking phenol red was pipetted into each of the wells of a 2-mL 96-well assay block. […] The wells were carefully mixed by pipette.
# In a 15 mL or 50 mL sterile centrifuge tube, a dilution in DMEM/F12 of the adenovirus AdEasy+rAR at a moi of 1:50 per well was prepared.
# The medium was removed from the 96-well plates by inversion and the plates dried very briefly, inverted, on a sterile towel. As soon as possible after medium removal, 40 μL of the diluted test compound was added to each well, in duplicate. […] The plates were then incubated for 48 hours at 37° C. in 5% (v/v) humidified CO2.
# The medium was removed from the above incubated plates by inversion and dried. Each well was then washed with 0.35 mL of 1×PBS. The PBS was then removed from the plates by inversion and the plates dried.
# To each well was then added 50 μL of 0.5% (v/v) Triton X-100 (Sigma) in 1×PBS and the plates placed on a rotary shaker for 5 min. The contents of each well were then transferred to an OptiPlate-96 (Packard) scintillation plate. To each well was then added 0.2 mL of Microscint-20 (Packard) and the wells counted on a TopCount (Packard).
# […] Counts per well were measured and percents of inhibition determined. […] Counts per well were measured and IC50s determined by linear regression.
SMILES,"inhibition at 3 µM ([1]; L929, L929 antagonist testing with R1881, 3000 nM) [%]",% Activity ([1]; 3000 nM) [%],% Activity ([1]; @ 8000 nM),active / inactive (inhibition of testosterone-enhanced prostate weight) [2],% Inhibition [3],inhibition at 3 µM [3] [%],"% Activity ([1]; 3000 nM, 3 µM) [%]"
"CCSCC(C)(O)c1cc2cc(C#N)c(C(F)(F)F)cc2[nH]1 (single isomer, unassigned) [Compound #217, 2-(2-Ethylsulfanyl-1-hydroxy-1-methyl-ethyl)-6-trifluoromethyl-1H-indole-5-carbonitrile]",87,5,0 @ 8000 nM %,active,38% and 69%,–,–
CSCC(C)(O)c1cc2cc(C#N)c(C(F)(F)F)cc2[nH]1 (stereo not shown) [compound 136],–,0,–,active,–,4.8,–
CCSCC(O)(CC)c1cc2cc([N+](=O)[O-])c(C(F)(F)F)cc2[nH]1 (stereo not shown) [compound 169],–,2,–,active,–,90,–
CC(O)(CSCC(F)(F)F)c1cc2cc([N+](=O)[O-])c(C(F)(F)F)cc2[nH]1 (stereo not shown) [compound 201],–,–,–,inactive,86%,–,2
CC(O)(CSCc1cccs1)c1cc2cc([N+](=O)[O-])c(C(F)(F)F)cc2[nH]1 (stereo not shown) [compound 197],–,2,–,inactive,–,86,–
"CC[S+]([O-])C[C@](C)(O)c1cc2cc([N+](=O)[O-])c(C(F)(F)F)cc2[nH]1 (stereo in doubt) [Compound #155, 1-Ethanesulfinyl-2-(5-nitro-6-trifluoromethyl-1H-indol-2-yl)-propan-2-ol]",–,2,–,inactive,–,35,–
CCCS(=O)(=O)CC(C)(O)c1cc2cc([N+](=O)[O-])c(C(F)(F)F)cc2[nH]1 (stereo not shown) [compound 177],–,2,–,active,–,90,–
CC(O)(CSC1CCCC1)c1cc2cc([N+](=O)[O-])c(C(F)(F)F)cc2[nH]1 (stereo not shown) [compound 173],–,2,–,inactive,–,17,–
CCC(O)(CS(=O)(=O)CC(F)(F)F)c1[nH]c2cc(C(F)(F)F)c([N+](=O)[O-])cc2c1Cl (stereo not shown) [compound 199],–,2,–,inactive,–,82,–
CC(O)(CSCC(F)(F)F)c1cc2cc(F)c(C(F)(F)F)cc2[nH]1 (stereo not shown) [compound 189],–,3,–,inactive,–,100,–
CC(O)(CSCc1ccccc1)c1cc2cc([N+](=O)[O-])c(C(F)(F)F)cc2[nH]1 (stereo not shown) [compound 160],–,1,–,inactive,–,84,–
"CC(O)(CSCC(F)(F)F)c1cc2cc([N+](=O)[O-])c(C(F)(F)F)cc2[nH]1 (single isomer, unassigned) [compound 202]",–,–,–,active,50%,–,1
COc1ccc(SCC(C)(O)c2cc3cc(Cl)c(C(F)(F)F)cc3[nH]2)cc1 (stereo not shown) [compound 131],–,−5,–,inactive,–,84,–
"CCSCC(C)(O)c1[nH]c2cc(C(F)(F)F)c(C#N)cc2c1C (single isomer, unassigned) [Compound #233, 2-(2-Ethylsulfanyl-1-hydroxy-1-methyl-ethyl)-3-methyl-6-trifluoromethyl-1H-indole-5-carbonitrile]",–,–,–,active,95% and 81%,–,0
CSCC(C)(O)c1cc2cc(Cl)c(C(F)(F)F)cc2[nH]1 (stereo not shown) [compound 135],–,0,–,inactive,–,98,–
CC(O)(CS(=O)(=O)c1ccc(N)cc1)c1cc2cc(Cl)c(C(F)(F)F)cc2[nH]1 (stereo not shown) [compound 118],–,–,−2 @ 8000 nM %,inactive,–,62,–
CCC(O)(CSCC(F)(F)F)c1cc2cc(F)c(C(F)(F)F)cc2[nH]1 (stereo not shown) [compound 194],–,2,–,inactive,–,80,–
CCSCC(C)(OC)c1cc2cc(C#N)c(C(F)(F)F)cc2n1C (stereo not shown) [compound 235],–,3,–,inactive,–,78,–
CC(O)(CS(C)(=O)=O)c1cc2cc([N+](=O)[O-])c(C(F)(F)F)cc2[nH]1 (stereo not shown) [compound 140],–,0,–,active,51.5%,–,–
CC(O)(CSCC(F)(F)F)c1cc2cc([N+](=O)[O-])c(C(F)(F)F)cc2[nH]1 (stereo not shown) [compound 171],–,–,−1 @ 8000 nM %,active,94%,92,11
CCS(=O)(=O)CC(C)(O)c1cc2cc([N+](=O)[O-])c(C(F)(F)F)cc2[nH]1 (stereo not shown) [compound 143],–,0,–,active,–,68,–
